Results: paper PMC9571063 (Molecules, 2022)

Legend:
MLK2 = target: T1, MLK2 (Homo sapiens, UniProt Q02779); experiment: KINOMEscan; assay type: binding; conditions: read-out: Percent Control
T1 construct: purchased Eurofins DiscoverX KINOMEscan (scanMAX 468)

TAOK1 = target: T2, TAOK1 (Homo sapiens, UniProt Q7L7X3); experiment: KINOMEscan; assay type: binding; conditions: read-out: Percent Control
T2 construct: purchased Eurofins DiscoverX KINOMEscan (scanMAX 468)

SRPK1 = target: T3, SRPK1 (Homo sapiens, UniProt Q96SB4); experiment: KINOMEscan; assay type: binding; conditions: read-out: Percent Control
T3 construct: purchased Eurofins DiscoverX KINOMEscan (scanMAX 468)
T3 sequence (Q96SB4 whole entry): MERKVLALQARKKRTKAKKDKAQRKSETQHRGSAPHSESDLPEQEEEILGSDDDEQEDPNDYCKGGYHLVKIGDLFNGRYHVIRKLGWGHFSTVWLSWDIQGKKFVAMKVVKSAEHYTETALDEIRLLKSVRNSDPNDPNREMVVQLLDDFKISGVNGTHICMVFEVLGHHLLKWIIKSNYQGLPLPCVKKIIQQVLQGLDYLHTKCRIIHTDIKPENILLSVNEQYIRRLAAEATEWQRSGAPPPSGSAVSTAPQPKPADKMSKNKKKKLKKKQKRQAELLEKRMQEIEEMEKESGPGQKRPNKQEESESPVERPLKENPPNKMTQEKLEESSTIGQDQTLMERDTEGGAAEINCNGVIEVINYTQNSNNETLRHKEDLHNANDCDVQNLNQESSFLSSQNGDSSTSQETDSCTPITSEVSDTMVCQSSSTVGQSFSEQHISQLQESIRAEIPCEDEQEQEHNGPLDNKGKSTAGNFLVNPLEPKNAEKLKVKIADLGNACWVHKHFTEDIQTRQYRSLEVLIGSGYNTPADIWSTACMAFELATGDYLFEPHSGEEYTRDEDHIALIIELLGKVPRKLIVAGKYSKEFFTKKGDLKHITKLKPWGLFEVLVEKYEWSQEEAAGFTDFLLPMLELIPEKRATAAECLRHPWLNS

TNIK = target: T4, TNIK (Homo sapiens, UniProt Q9UKE5); experiment: KINOMEscan; assay type: binding; conditions: read-out: Percent Control
T4 construct: purchased Eurofins DiscoverX KINOMEscan (scanMAX 468)
T4 sequence (Q9UKE5 whole entry): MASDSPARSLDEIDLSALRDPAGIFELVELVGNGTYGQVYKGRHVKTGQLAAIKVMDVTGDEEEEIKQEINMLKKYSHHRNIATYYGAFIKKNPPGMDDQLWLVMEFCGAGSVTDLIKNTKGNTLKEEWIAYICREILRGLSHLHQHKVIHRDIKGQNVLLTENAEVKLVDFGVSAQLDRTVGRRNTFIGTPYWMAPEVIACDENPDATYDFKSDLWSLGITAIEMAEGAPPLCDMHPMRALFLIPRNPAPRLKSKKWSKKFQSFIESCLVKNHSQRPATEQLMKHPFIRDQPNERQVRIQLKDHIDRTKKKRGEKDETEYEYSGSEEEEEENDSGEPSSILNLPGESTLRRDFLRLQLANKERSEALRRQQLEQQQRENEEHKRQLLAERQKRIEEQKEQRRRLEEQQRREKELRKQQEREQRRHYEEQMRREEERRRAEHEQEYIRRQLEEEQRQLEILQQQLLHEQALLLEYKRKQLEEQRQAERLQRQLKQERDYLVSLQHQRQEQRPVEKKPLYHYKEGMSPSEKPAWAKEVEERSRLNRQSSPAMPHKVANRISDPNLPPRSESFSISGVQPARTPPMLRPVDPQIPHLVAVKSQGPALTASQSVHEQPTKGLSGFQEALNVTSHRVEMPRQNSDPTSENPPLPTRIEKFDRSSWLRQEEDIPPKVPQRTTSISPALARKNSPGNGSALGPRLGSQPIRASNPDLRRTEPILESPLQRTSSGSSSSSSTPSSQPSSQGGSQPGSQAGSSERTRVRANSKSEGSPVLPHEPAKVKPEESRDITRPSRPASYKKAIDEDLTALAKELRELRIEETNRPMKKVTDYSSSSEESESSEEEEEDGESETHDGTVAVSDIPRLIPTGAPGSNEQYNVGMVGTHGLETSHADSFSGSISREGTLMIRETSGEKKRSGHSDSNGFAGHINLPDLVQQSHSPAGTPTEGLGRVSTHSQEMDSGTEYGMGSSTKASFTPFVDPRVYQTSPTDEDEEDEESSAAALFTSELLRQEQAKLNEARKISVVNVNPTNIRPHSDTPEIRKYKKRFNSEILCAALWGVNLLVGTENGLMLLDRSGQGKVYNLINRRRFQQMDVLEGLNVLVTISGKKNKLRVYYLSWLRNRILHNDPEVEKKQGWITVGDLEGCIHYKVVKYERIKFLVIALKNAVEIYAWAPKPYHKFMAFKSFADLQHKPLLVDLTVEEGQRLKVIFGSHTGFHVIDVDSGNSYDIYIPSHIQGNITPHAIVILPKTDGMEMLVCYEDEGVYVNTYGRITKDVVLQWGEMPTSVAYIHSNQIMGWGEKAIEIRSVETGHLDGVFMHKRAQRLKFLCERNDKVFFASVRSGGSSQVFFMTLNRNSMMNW

CDK7 = target: T5, CDK7 (Homo sapiens, UniProt P50613); experiment: KINOMEscan; assay type: binding; conditions: read-out: Percent Control
T5 construct: purchased Eurofins DiscoverX KINOMEscan (scanMAX 468)

PRKCD = target: T6, PRKCD (Homo sapiens, UniProt Q05655); experiment: KINOMEscan; assay type: binding; conditions: read-out: Percent Control
T6 construct: purchased Eurofins DiscoverX KINOMEscan (scanMAX 468)
T6 sequence (Q05655 whole entry): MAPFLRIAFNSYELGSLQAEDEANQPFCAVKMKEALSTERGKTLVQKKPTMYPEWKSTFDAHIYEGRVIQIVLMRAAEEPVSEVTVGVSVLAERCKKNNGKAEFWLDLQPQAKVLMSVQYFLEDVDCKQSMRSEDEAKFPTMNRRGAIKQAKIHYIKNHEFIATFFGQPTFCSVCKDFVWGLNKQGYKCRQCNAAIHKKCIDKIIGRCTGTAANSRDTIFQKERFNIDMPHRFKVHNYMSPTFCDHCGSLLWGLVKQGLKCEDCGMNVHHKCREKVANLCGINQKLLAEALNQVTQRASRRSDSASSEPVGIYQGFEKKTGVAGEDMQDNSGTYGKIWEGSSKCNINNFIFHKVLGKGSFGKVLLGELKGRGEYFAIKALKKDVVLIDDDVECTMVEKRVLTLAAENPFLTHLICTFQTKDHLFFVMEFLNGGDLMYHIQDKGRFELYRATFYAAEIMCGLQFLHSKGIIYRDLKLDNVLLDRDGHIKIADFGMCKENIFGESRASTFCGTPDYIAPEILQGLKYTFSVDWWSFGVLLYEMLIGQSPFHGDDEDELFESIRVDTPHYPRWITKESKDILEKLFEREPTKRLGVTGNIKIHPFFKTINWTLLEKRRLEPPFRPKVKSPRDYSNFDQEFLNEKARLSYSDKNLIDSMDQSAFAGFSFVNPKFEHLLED

ULK2 = target: T7, ULK2 (Homo sapiens, UniProt Q8IYT8); experiment: KINOMEscan; assay type: binding; conditions: read-out: Percent Control
T7 construct: purchased Eurofins DiscoverX KINOMEscan (scanMAX 468)

RAF1 = target: T8, RAF1 (Homo sapiens, UniProt P04049); experiment: KINOMEscan; assay type: binding; conditions: read-out: Percent Control
T8 construct: purchased Eurofins DiscoverX KINOMEscan (scanMAX 468)

CSNK1G2 = target: T9, CSNK1G2 (Homo sapiens, UniProt P78368); experiment: KINOMEscan; assay type: binding; conditions: read-out: Percent Control
T9 construct: purchased Eurofins DiscoverX KINOMEscan (scanMAX 468)

[1] = target: T10, ABL1(F317I)-phosphorylated (Homo sapiens, UniProt P00519, F317I); experiment: KINOMEscan; assay type: binding; conditions: read-out: Percent Control
T10 construct: purchased Eurofins DiscoverX KINOMEscan (scanMAX 468)

CDC2L1 = target: T11, CDC2L1 (Homo sapiens, UniProt P21127); experiment: KINOMEscan; assay type: binding; conditions: read-out: Percent Control
T11 construct: purchased Eurofins DiscoverX KINOMEscan (scanMAX 468)

MERTK = target: T12, MERTK (Homo sapiens, UniProt Q12866); experiment: KINOMEscan; assay type: binding; conditions: read-out: Percent Control
T12 construct: purchased Eurofins DiscoverX KINOMEscan (scanMAX 468)

FLT3(D835H) = target: T13, FLT3(D835H) (Homo sapiens, UniProt P36888, D835H); experiment: KINOMEscan; assay type: binding; conditions: read-out: Percent Control
T13 construct: purchased Eurofins DiscoverX KINOMEscan (scanMAX 468)

PDGFRA = target: T14, PDGFRA (Homo sapiens, UniProt P16234); experiment: KINOMEscan; assay type: binding; conditions: read-out: Percent Control
T14 construct: purchased Eurofins DiscoverX KINOMEscan (scanMAX 468)

TIE1 = target: T15, TIE1 (Homo sapiens, UniProt P35590); experiment: KINOMEscan; assay type: binding; conditions: read-out: Percent Control
T15 construct: purchased Eurofins DiscoverX KINOMEscan (scanMAX 468)

FLT1 = target: T16, FLT1 (Homo sapiens, UniProt P17948); experiment: KINOMEscan; assay type: binding; conditions: read-out: Percent Control
T16 construct: purchased Eurofins DiscoverX KINOMEscan (scanMAX 468)

JNK2 = target: T17, JNK2 (Homo sapiens, UniProt P45984); experiment: KINOMEscan; assay type: binding; conditions: read-out: Percent Control
T17 construct: purchased Eurofins DiscoverX KINOMEscan (scanMAX 468)

EPHB2 = target: T18, EPHB2 (Homo sapiens, UniProt P29323); experiment: KINOMEscan; assay type: binding; conditions: read-out: Percent Control
T18 construct: purchased Eurofins DiscoverX KINOMEscan (scanMAX 468)

GRK2 = target: T19, GRK2 (Homo sapiens, UniProt P25098); experiment: KINOMEscan; assay type: binding; conditions: read-out: Percent Control
T19 construct: purchased Eurofins DiscoverX KINOMEscan (scanMAX 468)
T19 sequence (P25098 whole entry): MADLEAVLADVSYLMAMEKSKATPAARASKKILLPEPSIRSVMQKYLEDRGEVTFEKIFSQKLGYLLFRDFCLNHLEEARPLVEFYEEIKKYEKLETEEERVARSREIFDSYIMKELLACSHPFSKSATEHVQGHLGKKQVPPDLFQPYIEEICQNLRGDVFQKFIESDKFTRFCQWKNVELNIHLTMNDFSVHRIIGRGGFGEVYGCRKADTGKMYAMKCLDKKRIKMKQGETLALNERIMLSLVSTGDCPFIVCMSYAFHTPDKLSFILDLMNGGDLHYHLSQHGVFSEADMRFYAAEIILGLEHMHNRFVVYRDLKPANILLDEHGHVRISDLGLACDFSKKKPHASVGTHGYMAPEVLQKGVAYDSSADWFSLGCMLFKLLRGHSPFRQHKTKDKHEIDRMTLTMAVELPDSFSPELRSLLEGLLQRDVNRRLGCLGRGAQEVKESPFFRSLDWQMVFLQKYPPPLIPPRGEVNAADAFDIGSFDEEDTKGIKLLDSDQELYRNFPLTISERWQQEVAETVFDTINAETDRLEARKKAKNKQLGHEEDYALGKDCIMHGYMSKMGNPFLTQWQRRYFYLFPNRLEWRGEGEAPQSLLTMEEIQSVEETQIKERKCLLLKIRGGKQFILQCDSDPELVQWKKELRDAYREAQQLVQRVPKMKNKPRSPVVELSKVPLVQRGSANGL

ADCK3 = target: T20, ADCK3 (Homo sapiens, UniProt Q8NI60); experiment: KINOMEscan; assay type: binding; conditions: read-out: Percent Control
T20 construct: purchased Eurofins DiscoverX KINOMEscan (scanMAX 468)

FLT3(D835V) = target: T21, FLT3(D835V) (Homo sapiens, UniProt P36888, D835V); experiment: KINOMEscan; assay type: binding; conditions: read-out: Percent Control
T21 construct: purchased Eurofins DiscoverX KINOMEscan (scanMAX 468)

HCT116 = tested on: HCT116; set-up: method as in ref 14 (a number printed in a supplementary file, which may have a reference list of its own: not looked up in the article's list); conditions: DB18[a], footnote not given; read-out: Cytotoxic studies IC50 HCT116; cited from earlier work
p38-delta = target: T22, p38-delta (Homo sapiens, UniProt O15264); experiment: KINOMEscan; assay type: binding; conditions: read-out: Percent Control
T22 construct: purchased Eurofins DiscoverX KINOMEscan (scanMAX 468)

LRRK2 = target: T23, LRRK2 (Homo sapiens, UniProt Q5S007); experiment: KINOMEscan; assay type: binding; conditions: read-out: Percent Control
T23 construct: purchased Eurofins DiscoverX KINOMEscan (scanMAX 468)

HIPK4 = target: T24, HIPK4 (Homo sapiens, UniProt Q8NE63); experiment: KINOMEscan; assay type: binding; conditions: read-out: Percent Control
T24 construct: purchased Eurofins DiscoverX KINOMEscan (scanMAX 468)

CDK4-cyclinD3 = target: T25, CDK4-cyclinD3 (Homo sapiens, UniProt P11802); experiment: KINOMEscan; assay type: binding; conditions: read-out: Percent Control
T25 construct: purchased Eurofins DiscoverX KINOMEscan (scanMAX 468)

[2] = target: T26, JAK1(JH2domain-pseudokinase) (Homo sapiens, UniProt P23458); experiment: KINOMEscan; assay type: binding; conditions: read-out: Percent Control
T26 construct: JAK1(JH2domain-pseudokinase); purchased Eurofins DiscoverX KINOMEscan (scanMAX 468)
T26 sequence (P23458 561-860 limits assumed): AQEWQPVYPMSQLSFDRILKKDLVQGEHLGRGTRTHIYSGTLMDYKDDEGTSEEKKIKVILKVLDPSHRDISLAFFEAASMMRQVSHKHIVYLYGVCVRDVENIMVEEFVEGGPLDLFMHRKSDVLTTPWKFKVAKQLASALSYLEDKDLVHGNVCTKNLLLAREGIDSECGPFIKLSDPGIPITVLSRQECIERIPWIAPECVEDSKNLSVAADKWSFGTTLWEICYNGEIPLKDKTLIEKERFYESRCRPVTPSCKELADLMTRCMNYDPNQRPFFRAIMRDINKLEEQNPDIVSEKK

CSNK1A1 = target: T27, CSNK1A1 (Homo sapiens, UniProt P48729); experiment: KINOMEscan; assay type: binding; conditions: read-out: Percent Control
T27 construct: purchased Eurofins DiscoverX KINOMEscan (scanMAX 468)

VEGFR2 = target: T28, VEGFR2 (Homo sapiens, UniProt P35968); experiment: KINOMEscan; assay type: binding; conditions: read-out: Percent Control
T28 construct: purchased Eurofins DiscoverX KINOMEscan (scanMAX 468)
T28 sequence (P35968 20-1356): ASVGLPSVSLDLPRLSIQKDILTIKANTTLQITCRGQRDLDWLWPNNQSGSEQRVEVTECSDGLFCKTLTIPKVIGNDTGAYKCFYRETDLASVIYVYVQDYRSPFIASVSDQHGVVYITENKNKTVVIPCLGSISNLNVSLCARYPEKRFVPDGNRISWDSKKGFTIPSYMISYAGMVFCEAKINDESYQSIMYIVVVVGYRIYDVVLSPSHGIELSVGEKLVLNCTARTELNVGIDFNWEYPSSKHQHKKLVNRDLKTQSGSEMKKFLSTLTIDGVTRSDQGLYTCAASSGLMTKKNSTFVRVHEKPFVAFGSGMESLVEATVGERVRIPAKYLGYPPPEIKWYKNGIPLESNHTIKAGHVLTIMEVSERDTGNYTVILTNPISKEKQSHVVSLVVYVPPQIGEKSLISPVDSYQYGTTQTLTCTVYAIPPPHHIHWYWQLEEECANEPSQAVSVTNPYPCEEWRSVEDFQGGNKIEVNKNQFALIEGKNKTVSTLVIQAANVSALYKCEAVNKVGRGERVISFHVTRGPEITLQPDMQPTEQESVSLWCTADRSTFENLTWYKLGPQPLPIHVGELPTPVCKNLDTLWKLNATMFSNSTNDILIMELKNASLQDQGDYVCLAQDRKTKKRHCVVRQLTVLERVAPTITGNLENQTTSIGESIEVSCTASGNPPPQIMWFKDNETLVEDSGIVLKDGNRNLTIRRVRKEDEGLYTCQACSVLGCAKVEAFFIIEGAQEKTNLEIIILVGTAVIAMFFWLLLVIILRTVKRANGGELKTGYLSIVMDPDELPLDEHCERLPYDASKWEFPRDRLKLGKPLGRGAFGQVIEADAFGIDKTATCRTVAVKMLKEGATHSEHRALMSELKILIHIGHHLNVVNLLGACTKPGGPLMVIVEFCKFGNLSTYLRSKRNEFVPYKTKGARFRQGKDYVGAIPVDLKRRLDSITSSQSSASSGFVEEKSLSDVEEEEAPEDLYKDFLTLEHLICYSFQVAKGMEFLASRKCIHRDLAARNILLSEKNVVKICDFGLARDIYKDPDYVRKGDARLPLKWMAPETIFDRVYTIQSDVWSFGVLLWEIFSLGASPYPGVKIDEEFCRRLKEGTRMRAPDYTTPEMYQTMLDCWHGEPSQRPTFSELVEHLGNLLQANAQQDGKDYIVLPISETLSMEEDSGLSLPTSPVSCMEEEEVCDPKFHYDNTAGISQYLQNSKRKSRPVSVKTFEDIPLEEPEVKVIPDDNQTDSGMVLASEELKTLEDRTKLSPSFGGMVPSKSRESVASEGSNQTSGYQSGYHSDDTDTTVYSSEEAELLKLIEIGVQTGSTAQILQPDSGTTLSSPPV

ERN1 = target: T29, ERN1 (Homo sapiens, UniProt O75460); experiment: KINOMEscan; assay type: binding; conditions: read-out: Percent Control
T29 construct: purchased Eurofins DiscoverX KINOMEscan (scanMAX 468)

ERK3 = target: T30, ERK3 (Homo sapiens, UniProt Q16659); experiment: KINOMEscan; assay type: binding; conditions: read-out: Percent Control
T30 construct: purchased Eurofins DiscoverX KINOMEscan (scanMAX 468)

MDA-MB-231 = tested on: MDA-MB-231; set-up: method as in ref 14 (a number printed in a supplementary file, which may have a reference list of its own: not looked up in the article's list); conditions: DB18[a], footnote not given; read-out: Cytotoxic studies IC50 MDA-MB-231; cited from earlier work
OSR1 = target: T31, OSR1 (Homo sapiens, UniProt O95747); experiment: KINOMEscan; assay type: binding; conditions: read-out: Percent Control
T31 construct: purchased Eurofins DiscoverX KINOMEscan (scanMAX 468)

GRK4 = target: T32, GRK4 (Homo sapiens, UniProt P32298); experiment: KINOMEscan; assay type: binding; conditions: read-out: Percent Control
T32 construct: purchased Eurofins DiscoverX KINOMEscan (scanMAX 468)

p38-gamma = target: T33, p38-gamma (Homo sapiens, UniProt P53778); experiment: KINOMEscan; assay type: binding; conditions: read-out: Percent Control
T33 construct: purchased Eurofins DiscoverX KINOMEscan (scanMAX 468)

PIKFYVE = target: T34, PIKFYVE (Homo sapiens, UniProt Q9Y2I7); experiment: KINOMEscan; assay type: binding; conditions: read-out: Percent Control
T34 construct: purchased Eurofins DiscoverX KINOMEscan (scanMAX 468)

panel of 468 kinases = experiment: KINOMEscan, whole panel selectivity score; assay type: binding, human; conditions: 1 µM; non-mutant kinases with %Ctrl < 25 / 403 non-mutant kinases tested
HCK = target: T35, HCK (Homo sapiens, UniProt P08631); experiment: KINOMEscan; assay type: binding; conditions: read-out: Percent Control
T35 construct: purchased Eurofins DiscoverX KINOMEscan (scanMAX 468)

PCTK1 = target: T36, PCTK1 (Homo sapiens, UniProt Q00536); experiment: KINOMEscan; assay type: binding; conditions: read-out: Percent Control
T36 construct: purchased Eurofins DiscoverX KINOMEscan (scanMAX 468)

EPHB4 = target: T37, EPHB4 (Homo sapiens, UniProt P54760); experiment: KINOMEscan; assay type: binding; conditions: read-out: Percent Control
T37 construct: purchased Eurofins DiscoverX KINOMEscan (scanMAX 468)

STK35 = target: T38, STK35 (Homo sapiens, UniProt Q8TDR2); experiment: KINOMEscan; assay type: binding; conditions: read-out: Percent Control
T38 construct: purchased Eurofins DiscoverX KINOMEscan (scanMAX 468)

Cc1ccc(-n2cc(COc3cccc4cnc(Nc5cccc(Cl)c5)nc34)nn2)c([N+](=O)[O-])c1 [DB18]
remaining binding at 1 µM (MLK2): 100% | remaining binding at 1 µM (TAOK1): 100% | remaining binding at 1 µM (SRPK1): 100% | remaining binding at 1 µM (TNIK): 100% | remaining binding at 1 µM (CDK7): 100% | remaining binding at 1 µM (PRKCD): 100% | remaining binding at 1 µM (ULK2): 100% | remaining binding at 1 µM (RAF1): 100% | remaining binding at 1 µM (CSNK1G2): 90% | remaining binding at 1 µM [1]: 100% | remaining binding at 1 µM (CDC2L1): 100% | remaining binding at 1 µM (MERTK): 100% | remaining binding at 1 µM (FLT3(D835H)): 55% | remaining binding at 1 µM (PDGFRA): 100% | remaining binding at 1 µM (TIE1): 100% | remaining binding at 1 µM (FLT1): 100% | remaining binding at 1 µM (JNK2): 96% | remaining binding at 1 µM (EPHB2): 100% | remaining binding at 1 µM (GRK2): 94% | remaining binding at 1 µM (ADCK3): 100% | remaining binding at 1 µM (FLT3(D835V)): 67% | IC50 (HCT116): > 25 µM | remaining binding at 1 µM (p38-delta): 100% | remaining binding at 1 µM (LRRK2): 100% | remaining binding at 1 µM (HIPK4): 17% | remaining binding at 1 µM (CDK4-cyclinD3): 100% | remaining binding at 1 µM [2]: 100% | remaining binding at 1 µM (CSNK1A1): 94% | remaining binding at 1 µM (VEGFR2): 99% | remaining binding at 1 µM (ERN1): 94% | remaining binding at 1 µM (ERK3): 100% | IC50 (MDA-MB-231): > 25 µM | remaining binding at 1 µM (OSR1): 100% | remaining binding at 1 µM (GRK4): 100% | remaining binding at 1 µM (p38-gamma): 100% | remaining binding at 1 µM (PIKFYVE): 61% | S-Score(25) (panel of 468 kinases): 0.015 | remaining binding at 1 µM (HCK): 100% | remaining binding at 1 µM (PCTK1): 94% | remaining binding at 1 µM (EPHB4): 100% | remaining binding at 1 µM (STK35): 100%
